Results from patent US20200239530A1, “COMPOUNDS AND METHODS OF MODULATING PROTEIN DEGRADATION” (Vividion Therapeutics, Inc., priority 2017, published 2020).

Biological target: T1, ALDH18A1 Delta-1-pyrroline-5-carboxylate synthase (Homo sapiens, UniProt P54886)
T1 construct: Cells were resuspended in cold PBS on ice and sonicated with a probe sonicator to achieve lysis; endogenous in cells
T1 sequence (P54886 1-795): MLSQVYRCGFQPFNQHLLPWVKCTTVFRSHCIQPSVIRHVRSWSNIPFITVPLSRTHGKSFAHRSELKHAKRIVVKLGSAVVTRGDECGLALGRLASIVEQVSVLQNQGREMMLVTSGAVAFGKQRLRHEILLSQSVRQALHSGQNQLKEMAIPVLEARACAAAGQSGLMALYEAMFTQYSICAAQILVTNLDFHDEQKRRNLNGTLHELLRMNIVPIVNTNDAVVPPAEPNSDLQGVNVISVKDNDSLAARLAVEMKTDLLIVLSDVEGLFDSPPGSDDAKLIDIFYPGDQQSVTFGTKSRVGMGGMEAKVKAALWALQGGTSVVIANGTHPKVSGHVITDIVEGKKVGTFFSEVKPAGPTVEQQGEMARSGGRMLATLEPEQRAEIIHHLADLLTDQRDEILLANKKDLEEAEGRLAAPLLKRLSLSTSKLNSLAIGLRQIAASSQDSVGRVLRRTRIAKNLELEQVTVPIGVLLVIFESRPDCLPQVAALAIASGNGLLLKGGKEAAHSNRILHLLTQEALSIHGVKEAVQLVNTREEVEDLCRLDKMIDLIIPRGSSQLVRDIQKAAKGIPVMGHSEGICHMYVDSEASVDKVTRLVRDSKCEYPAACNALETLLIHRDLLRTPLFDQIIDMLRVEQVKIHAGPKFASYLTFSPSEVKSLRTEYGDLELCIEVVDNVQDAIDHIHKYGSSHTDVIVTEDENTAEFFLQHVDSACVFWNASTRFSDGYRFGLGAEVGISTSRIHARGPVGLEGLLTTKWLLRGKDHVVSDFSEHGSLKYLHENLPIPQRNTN
Assay: Cysteine liganding, probe competition
Format: binding
Procedure, shortened: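 Steps: sonicate cells in cold PBS; treat 5 mg/ml lysate with compound (25° C, 1 hr); add desthiobiotin iodoacetamide probe from a 10 mM stock (25° C, 1 hr); precipitate, reduce, alkylate, digest with trypsin; capture labelled peptides on streptavidin for analysis.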

Compound	Liganded (ALDH18A1 Res# 612, uniprot P54886)	100 Max (uniprot P54886)	100 ave (uniprot P54886)	500 Max (uniprot P54886)	500 ave (uniprot P54886)
COc1ccc2c(c1)CCCN2C(=O)CCl [KB02]	YES	–	–	–	–
O=C(CCl)Nc1cc(C(F)(F)F)cc(C(F)(F)F)c1 [KBO3]	–	34.21	13.91	66.31	66.23
